Assay results: patent US6479531B1, “Gastrin and cholecystokinin receptor ligands” (James Black Foundation Limited, priority 1998, dated 2002)

Experiments:
CCKA receptor = biological target: T1, CCKA receptor (Cavia porcellus, UniProt Q63931); test: CCKA binding assay in guinea-pig pancreas membranes; details: [125I]-CCK8(S) 200 pM, with 0.375 μM PD134,308, read-out: CCKA pKi (converted)
T1 construct: The pancreatata were removed from male guineau-pigs (200-300 g; Dunkin Hartley); from tissue; host or cells: pancreas membranes of male Dunkin Hartley guinea-pigs
T1 sequence (Q63931 1-430): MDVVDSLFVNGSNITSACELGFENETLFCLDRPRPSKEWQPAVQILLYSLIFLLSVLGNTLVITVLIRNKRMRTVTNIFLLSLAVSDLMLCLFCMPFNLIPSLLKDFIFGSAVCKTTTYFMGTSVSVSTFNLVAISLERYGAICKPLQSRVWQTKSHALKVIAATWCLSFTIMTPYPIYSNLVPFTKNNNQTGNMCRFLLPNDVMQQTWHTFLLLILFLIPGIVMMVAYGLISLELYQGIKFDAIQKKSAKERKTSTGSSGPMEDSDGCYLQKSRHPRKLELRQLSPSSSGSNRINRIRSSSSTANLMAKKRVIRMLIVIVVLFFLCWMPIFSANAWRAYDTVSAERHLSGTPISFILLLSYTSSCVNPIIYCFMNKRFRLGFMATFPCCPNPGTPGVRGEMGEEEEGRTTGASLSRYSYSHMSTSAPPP
Experimental: The compounds of certain examples were also tested in a CCKA binding assay as follows:
The pancreatata were removed from male guineau-pigs (200-300 g; Dunkin Hartley) and placed in ice-cold HEPES buffer (pH 7.2 @ 21±3° C.). The pancreatata were homogenised in 40 ml ice-cold HEPES buffer using a polytron (Brinkmann, PT10, setting 10) 4×1 second. The homogenate was centrifuged at 39,800 g for 15 min at 4° C. The supernatant was discarded and the pellet re-suspended using a Teflon-in-glass homogeniser in 20 volumes of fresh buffer and re-centrifuged as above. The final pellet was re-suspended using a Teflon-in-glass homogeniser to a tissue concentration of 1 mg.ml^−1 (original weight), and filtered through a 500 μm pore-size Nytex mesh.
The membranes (400 μl; containing 0.375 μM PD134,308) were incubated for 150 minutes at 21±3° C. in a final volume of 0.5 ml with HEPES buffer containing [^125I]-CCK8 (S) (50 μl; 200 pM) and competing compound. Total and non-specific binding of [^125I]-CCK8 (S) were defined using 50 μl of buffer and 50 μ of 100 nM L-364,718 respectively. The assay was terminated by rapid filtration through pre-soaked Whatman GF/B filters using a Brandell Cell Harvetser. The filters were washed (3×3 ml) with ice-cold 50 mM Tris HCl (pH 7.4 @ 4° C.) and bound radioactivity was determined by counting (1 min) in a gamma counter.

CCKB receptor = biological target: T2, CCKB receptor (Mus musculus, UniProt P56481); test: CCKB receptor radioligand binding assay in mouse cortical membranes; details: [125I]-CCK8(S) 200 pM, 150 min at 21±3°, read-out: CCKB pKi (converted)
T2 construct: The whole brains from male mice (CD1 22-25 g; Charles River) were removed; from tissue; host or cells: cerebral cortex membranes of male CD1 mice
T2 sequence (P56481 1-453): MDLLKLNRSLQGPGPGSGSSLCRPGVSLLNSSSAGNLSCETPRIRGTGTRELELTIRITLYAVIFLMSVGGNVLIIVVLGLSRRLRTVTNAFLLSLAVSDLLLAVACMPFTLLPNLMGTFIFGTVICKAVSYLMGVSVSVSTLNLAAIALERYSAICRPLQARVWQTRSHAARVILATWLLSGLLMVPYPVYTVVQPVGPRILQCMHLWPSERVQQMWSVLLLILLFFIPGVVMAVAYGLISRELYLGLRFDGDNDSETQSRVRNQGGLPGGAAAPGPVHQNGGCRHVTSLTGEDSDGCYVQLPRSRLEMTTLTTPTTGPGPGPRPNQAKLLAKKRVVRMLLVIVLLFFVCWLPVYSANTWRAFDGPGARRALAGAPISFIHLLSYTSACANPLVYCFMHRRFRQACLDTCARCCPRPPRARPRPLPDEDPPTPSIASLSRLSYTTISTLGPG
Summary of the method: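 Bound radioactivity was gamma-counted after rapid GF/B filtration and cold 50 mM Tris-HCl (pH 7.4) washes. The tissue was cerebral cortex from male CD1 mice, prepared as twice-centrifuged membranes in pH 7.2 HEPES/NaCl/KCl/MgCl2/EDTA buffer with bacitracin at 20 mg/ml original wet weight.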

gastrin receptor = biological target: T3, gastrin receptor (Rattus norvegicus, UniProt P30553); test: gastrin antagonist activity in immature rat stomach assay (pentagastrin dose-response, acid secretion); details: isolated immature rat stomach, cumulative pentagastrin dose-response curves, read-out: Gastrin pKb (converted)
T3 construct: The stomach was excised and flushed with ca. 1 ml of unbuffered physiological saline solution; from tissue; host or cells: isolated whole stomach of immature rats (ca. 21 days old)
T3 sequence (P30553 1-452): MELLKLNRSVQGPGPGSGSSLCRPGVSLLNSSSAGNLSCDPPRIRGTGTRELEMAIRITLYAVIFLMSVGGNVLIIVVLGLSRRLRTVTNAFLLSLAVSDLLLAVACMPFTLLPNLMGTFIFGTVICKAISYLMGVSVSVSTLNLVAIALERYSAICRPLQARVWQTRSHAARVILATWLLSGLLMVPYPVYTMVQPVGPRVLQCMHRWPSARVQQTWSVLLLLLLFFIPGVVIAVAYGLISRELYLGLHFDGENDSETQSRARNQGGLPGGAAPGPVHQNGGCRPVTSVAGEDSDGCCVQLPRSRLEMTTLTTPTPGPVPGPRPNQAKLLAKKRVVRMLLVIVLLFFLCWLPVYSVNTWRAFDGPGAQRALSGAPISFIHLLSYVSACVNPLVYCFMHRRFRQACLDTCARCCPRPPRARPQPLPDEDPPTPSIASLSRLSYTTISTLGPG
Summary of the method: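 Isolated, lumen-perfused stomach from immature rats (33-50 g, ca. 21 days) in a 37° organ bath with 3×10^−8 M 5-methylfurmethide, gassed 95% O2/5% CO2. Compound added serosally after 120 min stabilisation; cumulative pentagastrin dose-response curves begun 60 min later, acid secretion followed by perfusate pH.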

| SMILES | Ki (CCKA receptor) | Ki (CCKB receptor) | Kb (gastrin receptor) |
| --- | --- | --- | --- |
| Cc1ccc(NC(=O)c2nc(C3CC4C=CC3C4)[nH]c2CCC23CC4CC(CC(C4)C2)C3)cc1C(=O)O (racemic) [Example 211, (±)-endo-5-{[5-(2-Adamantan-1-yl-ethyl)-2-bicyclo[2.2.1]hept-5-en-2-yl-1H-imidazole-4-carbonyl]-amino}-2-methyl-benzoic Acid] | 100 nM | 2.29 nM | 2.57 nM |
| O=C(O)c1cccc(NC(=O)c2[nH]c(C3CCCCC3)nc2CCC23CC4CC(CC(C4)C2)C3)c1 [Example 76, 3-{[5-(2-Adamantan-1-yl-ethyl)-2-cyclohexyl-1H-imidazole-4-carbonyl]-amino}-benzoic Acid] | 631 nM | 25.1 nM | 4.9 nM |
| Cc1ccc(NC(=O)c2[nH]c(C3(C)CCCCC3)nc2CCC23CC4CC(CC(C4)C2)C3)cc1C(=O)O [Example 200, 5-{[5-(2-Adamantan-1-yl-ethyl)-2-(1-methyl-cyclohexyl)-1H-imidazole-4-carbonyl}-amino)-2-methyl-benzoic Acid] | 251 nM | 3.8 nM | 0.891 nM |
| O=C(O)c1cccc(NC(=O)c2nc(C3CCCCC3)[nH]c2COC23CC4CC(CC(C4)C2)C3)c1 [Example 216, 3-{[5-(Adamantan-1-yloxymethyl)-2-cyclohexyl-1H-imidazole-4-carbonyl]-amino}-benzoic Acid] | 501 nM | 12.6 nM | 0.871 nM |
| Cc1cc(C)c(-c2nc(C(=O)Nc3ccc(C)c(C(=O)O)c3)c(CCC34CC5CC(CC(C5)C3)C4)[nH]2)c(C)c1 [Example 155, 5-{[5-(2-Adamantan-1-yl-ethyl)-2-(2,4,6-trimethyl-phenyl)-1H-imidazole-4-carbonyl]-amino}-2-methyl-benzoic Acid] | 126 nM | 2.88 nM | 3.24 nM |
